Experimental data published in patent US20090239828A1, “Adhesive preparation” (priority 2006, published 2009).

How the values were obtained:
[1] = Clinical test, once daily oral administration to patients with osteoporosis; settings: human, in vivo
[2] = Oral administration in rat models of osteoporosis; settings: in vivo; from the minimum effective dose in oral administration in rat models; read-out: sum of the AUC value of minodronic acid per month that gives a suppressive effect on osteoporosis
Protocol: The effective blood concentration of the bisphosphonic acid derivative for human can be extrapolated from results of various clinical tests, animal experiments, etc. For example, when minodronic acid hydrate was used, the sum of the AUC value of minodronic acid per month that gives a suppressive effect on osteoporosis was about 5 ng·hr/mL or more, from the minimum effective dose in oral administration in rat models of osteoporosis.

- AUC [1]: ≥ 1 ng·h/mL
- AUC [2]: ≥ 5 ng·h/mL
Compound: O=P(O)(O)C(O)(Cc1cnc2ccccn12)P(=O)(O)O [minodronic acid hydrate, 1-hydroxy-2-(imidazo[1,2-a]pyridin-3-yl)ethylidenebisphosphonic acid]
